Patent US8642585B2, “Indanyloxydihydrobenzofuranylacetic acids” (Boehringer Ingelheim International GmbH, priority 2012, dated 2014)

Legend:
human GPR40 receptor [1] = target: T1, human GPR40 receptor (Homo sapiens, UniProt O14842); assay: Assay I: IP1 accumulation (IPOne HTRF) in 1321N1 cells stably expressing human GPR40; type: cell-based; conditions: 1321N1 cells expressing human GPR40, stimulation 1 hour at 37° C., 10% CO2, final LiCl 50 mM
Experimental: IP1 accumulation measurements using the IPOne assay system—1321N1 cells stably expressing human GPR40 receptor (Euroscreen, Belgium) are seeded 24 h before the assay in black clear-bottom collagen-coated 384-well plates in culture medium containing 10% FCS, 1% Na-Pyruvate and 400 μg/mL G418. IP1 is assayed according to the Manufacturers description (Cisbio Bioassays, France). In brief, the assay is started by substitution of the culture medium by stimulation buffer (Hepes 10 mM, CaCl2 1 mM, MgCl2 0.5 mM, KCl 4.2 mM, NaCl 146 mM and glucose 5.5 mM, pH 7.4) without LiCl. Cells are stimulated for 1 hour at 37° C., 10% CO2 by addition of the compounds that are diluted in stimulation buffer containing LiCl yielding a final LiCl concentration of 50 mM. Assays are stopped by adding HTRF-conjugates (IP1-d2 and Anti-IP1 cryptate Tb) and lysis buffer, provided by the manufacturer. After an incubation time of 1 hour at room temperature plates are measured using an EnVision™, Perkin Elmer. The obtained fluorescence ratios at 665/615 nM are then used to calculate the pEC50 values using GraphPad Prism 5 (Graphpad Software Inc, USA) by interpolation using an IP1 reference curve and subsequent sigmoidal curve fitting allowing for a variable hill slope.

human GPR40 receptor [2] = target: T1, human GPR40 receptor; assay: Assay II: IP1 accumulation (IPOne HTRF) in 1321N1 cells stably expressing human GPR40; type: cell-based; conditions: 1321N1 cells expressing human GPR40, stimulation 1 h at 37° C., 5% CO2, LiCl 50 mM
Procedure, shortened: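 1321N1 cells stably expressing human GPR40, seeded 24 h earlier, were stimulated with compound for 1 h at 37 °C in LiCl (50 mM) buffer, pH 7.4. IP1 measured by HTRF (665/615 ratio) after lysis and 1 h room temperature; pEC50 via IP1 reference curve and variable-slope sigmoidal fit.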

T1 sequence (O14842 whole entry): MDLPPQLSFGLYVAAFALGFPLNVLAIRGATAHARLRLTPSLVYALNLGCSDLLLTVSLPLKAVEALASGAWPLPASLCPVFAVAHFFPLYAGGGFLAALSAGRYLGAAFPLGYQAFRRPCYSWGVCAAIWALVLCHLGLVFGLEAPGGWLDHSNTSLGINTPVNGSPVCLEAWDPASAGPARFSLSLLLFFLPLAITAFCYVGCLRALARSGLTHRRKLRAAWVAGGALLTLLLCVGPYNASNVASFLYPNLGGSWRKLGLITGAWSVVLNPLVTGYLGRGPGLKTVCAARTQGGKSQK

Compound	EC50 (human GPR40 receptor [1]) [nM]	EC50 (human GPR40 receptor [2]) [nM]
Cc1cc(OCC2(C)COC2)cc(C)c1-c1ccc(F)c2c1CC[C@H]2Oc1ccc2c(c1)OC[C@H]2CC(=O)O [Example 1, 2-((S)-6-((R)-4-(2,6-dimethyl-4-((3-methyloxetan-3-yl)methoxy)phenyl)-7-fluoro-2,3-dihydro-1H-inden-1-yloxy)-2,3-dihydrobenzofuran-3-yl)acetic acid]	4	
Cc1cc(OCC2CCOC2)cc(C)c1-c1ccc(F)c2c1CC[C@H]2Oc1ccc2c(c1)OC[C@H]2CC(=O)O (stereo partly drawn) [Example 2, 2-((3S)-6-((1R)-4-(2,6-dimethyl-4-((tetrahydrofuran-3-yl)methoxy)phenyl)-7-fluoro-2,3-dihydro-1H-inden-1-yloxy)-2,3-dihydrobenzofuran-3-yl)acetic acid]	5	
Cc1cc(OCC2CCCO2)cc(C)c1-c1ccc(F)c2c1CC[C@H]2Oc1ccc2c(c1)OC[C@H]2CC(=O)O (stereo partly drawn) [Example 3, 2-((3S)-6-((1R)-4-(2,6-dimethyl-4-((tetrahydrofuran-2-yl)methoxy)phenyl)-7-fluoro-2,3-dihydro-1H-inden-1-yloxy)-2,3-dihydrobenzofuran-3-yl)acetic acid]	6	
Cc1cc(OCCC(C)(C)O)cc(C)c1-c1ccc(F)c2c1CC[C@H]2Oc1ccc2c(c1)OC[C@H]2CC(=O)O [Example 4, 2-((S)-6-((R)-7-Fluoro-4-(4-(3-hydroxy-3-methylbutoxy)-2,6-dimethylphenyl)-2,3-dihydro-1H-inden-1-yloxy)-2,3-dihydrobenzofuran-3-yl)acetic acid]	5	
Cc1cc(OCC[S+](C)[O-])cc(C)c1-c1ccc(F)c2c1CC[C@H]2Oc1ccc2c(c1)OC[C@H]2CC(=O)O (stereo partly drawn) [Example 5, 2-((3S)-6-((1R)-4-(2,6-Dimethyl-4-(2-(methylsulfinyl)ethoxy)phenyl)-7-fluoro-2,3-dihydro-1H-inden-1-yloxy)-2,3-dihydrobenzofuran-3-yl)acetic acid]	19	
Cc1cc(OCc2ccn(C)c(=O)c2)cc(C)c1-c1ccc(F)c2c1CC[C@H]2Oc1ccc2c(c1)OC[C@H]2CC(=O)O [Example 146, 2-((S)-6-((R)-4-(2,6-dimethyl-4-((1-methyl-2-oxo-1,2-dihydropyridin-4-yl)methoxy)phenyl)-7-fluoro-2,3-dihydro-1H-inden-1-yloxy)-2,3-dihydrobenzofuran-3-yl)acetic acid]		7
Cc1cc(OCc2ncco2)cc(C)c1-c1ccc(F)c2c1CC[C@H]2Oc1ccc2c(c1)OC[C@H]2CC(=O)O [Example 148, 2-((S)-6-((R)-4-(2,6-dimethyl-4-(oxazol-2-ylmethoxy)phenyl)-7-fluoro-2,3-dihydro-1H-inden-1-yloxy)-2,3-dihydrobenzofuran-3-yl)acetic acid]		13
Cc1cc(OCc2nccn2C)cc(C)c1-c1ccc(F)c2c1CC[C@H]2Oc1ccc2c(c1)OC[C@H]2CC(=O)O [Example 149, 2-((S)-6-((R)-4-(2,6-dimethyl-4-((1-methyl-1H-imidazol-2-yl)methoxy)phenyl)-7-fluoro-2,3-dihydro-1H-inden-1-yloxy)-2,3-dihydrobenzofuran-3-yl)acetic acid]		12
Cc1cc(OCC2CCOCC2)cc(C)c1-c1ccc(F)c2c1CC[C@H]2Oc1ccc2c(c1)OC[C@H]2CC(=O)O [Example 150, 2-((S)-6-((R)-4-(2,6-dimethyl-4-((tetrahydro-2H-pyran-4-yl)methoxy)phenyl)-7-fluoro-2,3-dihydro-1H-inden-1-yloxy)-2,3-dihydrobenzofuran-3-yl)acetic acid]		6
Cc1cc(OCc2cnn(C)c2)cc(C)c1-c1ccc(F)c2c1CC[C@H]2Oc1ccc2c(c1)OC[C@H]2CC(=O)O [Example 152, 2-((S)-6-((R)-4-(2,6-dimethyl-4-((1-methyl-1H-pyrazol-4-yl)methoxy)phenyl)-7-fluoro-2,3-dihydro-1H-inden-1-yloxy)-2,3-dihydrobenzofuran-3-yl)acetic acid]		19
((S)-6-{(R)-4-[4-((R)-1,1-Dioxo- tetrahydro-1-thiophen-3- ylmethoxy)-2,6-dimethyl- phenyl]-7-fluoro-indan-1- yloxy}-2,3-dihydro-benzofuran- 3-yl)-acetic acid [Example 47]		8
